# Results as given in ChEMBL document CHEMBL1131914, “Carbohydroxamido-oxazolidines: antibacterial agents that target lipid A biosynthesis” (Bioorg Med Chem Lett, 1999).
# Activity calls are given as the source filed them. The rule behind the calls is not given here.
# How the values were obtained:
# [1] = molecular target: T1, UDP-3-O-acyl-N-acetylglucosamine deacetylase (Escherichia coli K-12, UniProt P0A725); test: Inhibition of UDP-3-O-[R-3-hydroxymyristoyl]-GlcNAc deacetylase using direct deacetylase assay (DEACET) in Escherichia coli strain JB 1104
# T1 sequence (P0A725 whole entry): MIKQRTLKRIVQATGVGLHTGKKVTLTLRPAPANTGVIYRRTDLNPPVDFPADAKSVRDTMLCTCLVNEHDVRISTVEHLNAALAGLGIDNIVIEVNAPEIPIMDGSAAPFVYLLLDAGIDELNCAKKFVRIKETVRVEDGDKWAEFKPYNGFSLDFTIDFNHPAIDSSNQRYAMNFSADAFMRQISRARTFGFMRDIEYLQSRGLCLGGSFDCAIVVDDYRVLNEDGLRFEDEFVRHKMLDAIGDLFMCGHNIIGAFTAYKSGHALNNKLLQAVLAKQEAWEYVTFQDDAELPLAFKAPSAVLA
# [2] = molecular target: T1, UDP-3-O-acyl-N-acetylglucosamine deacetylase; test: Inhibition of UDP-3-O-[R-3-hydroxymyristoyl]-GlcNAc deacetylase using coupled radiochemical assay (WAVE) in Escherichia coli strain JB 1104
# [3] = system: Escherichia coli; test: Antibacterial activity against Escherichia coli was determined; Ranges from 25-50; type: functional
# [4] = system: Escherichia coli; test: Antibacterial activity against Escherichia coli mutant (envA1) was determined; type: functional
# [5] = system: Escherichia coli; test: Antibacterial activity against Escherichia coli was determined; type: functional
# [6] = system: Escherichia coli; test: Antibacterial activity of against Escherichia coli mutant (envA1) was determined.; type: functional, organism-based
# [7] = system: Pseudomonas; test: Antibacterial activity against Pseudomonas was determined; NA=not active; type: functional, organism-based
# [8] = system: Serratia; test: Antibacterial activity against Serratia was determined; NA=not active; type: functional, organism-based
# [9] = system: Escherichia coli; test: Antibacterial activity against Escherichia coli was determined; Ranges from 1-3; type: functional
# [10] = system: Escherichia coli; test: Antibacterial activity against Escherichia coli mutant (envA1) was determined; Ranges from 0.008-0.016; type: functional
# [11] = system: Escherichia coli; test: Antibacterial activity against Escherichia coli was determined; Ranges from 200-400; type: functional
# [12] = system: Escherichia coli; test: Antibacterial activity against Escherichia coli was determined; Ranges from […]; type: functional
SMILES,IC50 [1] [nM],IC50 ([2]; read-out: IC50) [nM],MIC [4] [µg/mL],MIC [6],other results
COc1ccc(C2=N[C@@H](C(=O)NO)CO2)cc1,1400,300,0.25,,MIC [3]: 25 µg/mL
CCCc1cccc(C2=N[C@@H](C(=O)NO)CO2)c1,1600,50,0.06,,MIC [5]: 12.5 µg/mL
O=C(NO)[C@H]1COC(c2ccco2)=N1,,9000,,inactive,
CCCc1cc(C2=NC(C(=O)NO)CO2)cc(O)c1OC (configuration not stated),100,,0.06,,MIC [5]: 12.5 µg/mL
O=C(O)C1COC(c2ccccc2)=N1 (configuration not stated),,> 400000,,,
Cc1ccc(C2=NC(C(=O)NO)CO2)cc1 (configuration not stated),,1700,,inactive,
COc1cc(C2=N[C@@H](C(=O)NO)CO2)cc(OC)c1OC,300,,,inactive,
COC(=O)C1COC(c2ccccc2)=N1 (configuration not stated),,> 400000,,,
O=C(NO)C1COC(c2c(Cl)cccc2Cl)=N1 (configuration not stated),> 200000,,,inactive,IC50 [2]: Not Active
O=C(NO)C1COC(c2cccnc2)=N1 (configuration not stated),100000,,,inactive,
CCCc1cc(C2=N[C@@H](C(=O)NO)CO2)cc(OC)c1OC,30,,,,MIC [7]: inactive; MIC [8]: inactive; MIC [9]: 1 µg/mL; MIC [10]: 0.008 µg/mL
O=C(NO)C1COC(c2ccccc2)=N1 (configuration not stated),8500,3000,3.6,,MIC [11]: 200 µg/mL
CCCc1cc(C2=NC(C(=O)NO)CO2)ccc1OC (configuration not stated),300,,0.1,,MIC [5]: 12.5 µg/mL
O=C(NO)C1COC(c2ccccc2Cl)=N1 (configuration not stated),30000,,,,
Cc1ccccc1C1=NC(C(=O)NO)CO1 (configuration not stated),,2600,,inactive,
CN(OCc1ccccc1)C(=O)[C@H]1COC(c2ccccc2)=N1,,> 400000,,,
CCc1ccc(C2=N[C@@H](C(=O)NO)CO2)cc1,600,200,,inactive,
CCCc1cc(C2=NC(C(=O)NO)CO2)cc(OCc2ccccc2)c1OC (configuration not stated),20,,< 0.008,,MIC [5]: 25 µg/mL
O=C(NO)[C@H]1COC(c2ccccc2)=N1,6000,1500,,,
Cc1cccc(C2=NC(C(=O)NO)CO2)c1 (configuration not stated),,1100,,inactive,
O=C(NO)C1COC(c2ccncc2)=N1 (configuration not stated),100000,,,inactive,
CCCc1cc(C2=NC(C(=O)NO)CO2)cc(OC)c1OC (configuration not stated),50,,< 0.05,,MIC [12]: 3 µg/mL
CN(O)C(=O)[C@H]1COC(c2ccccc2)=N1,,> 400000,,,
CCCc1ccc(C2=N[C@@H](C(=O)NO)CO2)cc1,,100,,inactive,
CCCc1cc(C2=NC(C(=O)NO)CO2)cc(OC)c1O (configuration not stated),1400,,0.39,,MIC [5]: > 100 µg/mL
O=C(NO)[C@@H]1COC(c2ccccc2)=N1,,360000,,,
